Results as given in patent publication US20250281464A1, “TREATMENT OF PATHOGENIC NEISSERIA SP. INFECTION WITH TRIAZOLE ANTIFUNGAL AGENTS” (Virginia Tech Intellectual Properties, Inc., priority 2022, published 2025).
≈ marks a conversion by molar mass, not a printed value. Where two headings read alike, the source gives them in different places.

Experiments:
N. gonorrhoeae isolates = assay: MIC against panel of N. gonorrhoeae clinical isolates; assay type: cell-based, Neisseria gonorrhoeae
L. crispatus = assay: MIC against commensal vaginal Lactobacillus strains; assay type: cell-based, Lactobacillus crispatus; settings: for MIC Range: Table 6, L. crispatus (3 strains); for MIC: Lactobacillus crispatus
Text: (§1) N. gonorrhoeae pathogenesis greatly depends on colonization of the reproductive tract. One of the natural barriers of such colonization is an intact healthy microbiome. Species of lactobacilli present in the genitourinary tract play a significant role in hindering colonization by Neisseria(1).
(§2) A healthy vaginal microbiome that is dominated by Lactobacillus spp. is less susceptible to N. gonorrhoeae infection and other sexually transmitted diseases (STDs). […] We tested the activity of azoles against important members of healthy vaginal microbiota that inhibit N. gonorrhoeae colonization.

L. gasseri = assay: as above; assay type: cell-based, Lactobacillus gasseri; settings: for MIC Range: Table 6, L. gasseri (4 strains); for MIC: Lactobacillus gasseri
Text: as §1, §2

L. jensenii = assay: as above; assay type: cell-based, Lactobacillus jensenii; settings: for MIC Range: Table 6, L. jensenii (7 strains); for MIC: Lactobacillus jensenii
Text: as §1, §2

L. johnsonii = assay: as above; assay type: cell-based, Lactobacillus johnsonii; settings: for MIC Range: Table 6, L. johsonii (2 strains)
Text: as §1, §2

[1] = test system: commensal vaginal lactobacilli strains; assay: MIC against all commensal vaginal Lactobacillus strains tested; assay type: cell-based, Lactobacillus spp.
Text: as §1, §2

[2] = MIC against normal gut microbiota; assay type: cell-based
Text: (§3) Disrupting the intestinal microbiota using broad-spectrum antimicrobial therapy increases the susceptibility of hosts to C. difficile colonization.

Bacteroides dorei = assay: MIC against normal gut microbiota; assay type: cell-based; settings: Bacteroides dorei (2 strains)
Text: as §3

Bacteroides fragilis = assay: MIC against normal gut microbiota; assay type: cell-based; settings: Bacteroides fragilis (4 strains)
Text: as §3

[3] = test system: Bifidobacterium angulatum; assay: MIC against normal gut microbiota; assay type: cell-based; settings: Bifidobacterium angulatum (1 strain)
Text: as §3

Enterococcus faecalis = assay: MIC against normal gut microbiota; assay type: cell-based; settings: Enterococcus faecalis (1 strain)
Text: as §3

Enterococcus faecium = assay: MIC against normal gut microbiota; assay type: cell-based; settings: Enterococcus faecium (1 strain)
Text: as §3

Escherichia coli = assay: MIC against normal gut microbiota; assay type: cell-based; settings: Escherichia coli (1 strain)
Text: as §3

Lactobacillus brevis = assay: MIC against normal gut microbiota; assay type: cell-based; settings: Lactobacillus brevis (1 strain)
Text: as §3

Lactobacillus casei = assay: MIC against normal gut microbiota; assay type: cell-based; settings: Lactobacillus casei (1 strain)
Text: as §3

Lactobacillus rhamnosus = assay: MIC against normal gut microbiota; assay type: cell-based; settings: Lactobacillus rhamnosus (1 strain)
Text: as §3

Staphylococcus aureus = assay: MIC against normal gut microbiota; assay type: cell-based; settings: Staphylococcus aureus (1 strain)
Text: as §3

[4] = test system: resistant N. gonorrhoeae isolates; assay: MIC against resistant N. gonorrhoeae isolates by agar dilution; assay type: cell-based, Neisseria gonorrhoeae
N. gonorrhoeae = assay: Post-antibiotic effect (PAE) against N. gonorrhoeae; assay type: cell-based, Neisseria gonorrhoeae; settings: 1 h exposure at 10×MIC
Text: Determining the PAE of a new antimicrobial is an important step for dosing and has clinical importance.

N. flavescens = assay: MIC against Neisseria spp.; assay type: cell-based; settings: N. flavescens (1 strain)
Text: (§4) Intrigued by the specificity and potent activity of azoles against N. gonorrhoeae, we evaluated the extent of the azoles' antibacterial activity against other Neisseria species (Table 8).

N. lactamica = assay: MIC against Neisseria spp.; assay type: cell-based; settings: N. lactamica (1 strain)
Text: as §4

N. mucosa = assay: MIC against Neisseria spp.; assay type: cell-based; settings: N. mucosa (1 strain)
Text: as §4

[5] = Table 1, 104 N. gonorrhoeae isolates
[6] = Table 3, 103 N. gonorrhoeae isolates with different resistance profiles
[7] = Bacteroides adolescentis (2 strains)
[8] = Neisseria gonorrhoeae, Table 1, 104 N. gonorrhoeae isolates, read-out: MIC50
[9] = Neisseria gonorrhoeae, Table 1, 104 N. gonorrhoeae isolates, read-out: MIC90
[10] = Neisseria gonorrhoeae, Table 3, 103 N. gonorrhoeae isolates with different resistance profiles, read-out: MIC50
[11] = Neisseria gonorrhoeae, Table 3, 103 N. gonorrhoeae isolates with different resistance profiles, read-out: MIC90
[12] = all species/strains of Lactobacillus tested (Example 2), read-out: MIC

Structure (SMILES): C[C@@H]1CN2c3c(cc4c(N5C(=O)OC[C@@H]5C)noc4c3F)CC3(C(=O)NC(=O)NC3=O)[C@H]2[C@H](C)O1 [Zoliflodacin]
- MIC50 (N. gonorrhoeae isolates; Neisseria gonorrhoeae): 0.06 µg/mL (≈ 0.123 µM)
- MIC90 (N. gonorrhoeae isolates; Neisseria gonorrhoeae): 0.125 µg/mL (≈ 0.256 µM)
- MIC Range (N. gonorrhoeae isolates; [5]): 0.004 to 0.5 µg/mL
- MIC50 (N. gonorrhoeae isolates; [6]): 0.06 µg/mL (≈ 0.123 µM)
- MIC90 (N. gonorrhoeae isolates; [6]): 0.125 µg/mL (≈ 0.256 µM)
- MIC Range (N. gonorrhoeae isolates; [6]): 0.004 to 0.25 µg/mL
- MIC Range (L. crispatus): ≤1 µg/mL
- MIC Range (L. gasseri): ≤1 µg/mL
- MIC Range (L. jensenii): ≤1 µg/mL
- MIC Range (L. johnsonii): ≤1 µg/mL
- MIC ([1]; Lactobacillus): < 1 µg/mL
- MIC Range [2, 7]: 1 µg/mL (≈ 2.05 µM)
- MIC Range ([2]; Bacteroides breve (2 strains)): 4 µg/mL (≈ 8.21 µM)
- MIC Range ([2]; Bacteroides longum (2 strains)): 1 to 2 µg/mL
- MIC Range (Bacteroides dorei): 0.5 to 1 µg/mL
- MIC Range (Bacteroides fragilis): 2 to 8 µg/mL
- MIC Range [3]: 1 µg/mL (≈ 2.05 µM)
- MIC Range (Enterococcus faecalis): 0.5 µg/mL (≈ 1.03 µM)
- MIC Range (Enterococcus faecium): 2 µg/mL (≈ 4.1 µM)
- MIC Range (Escherichia coli): 0.25 µg/mL (≈ 0.513 µM)
- MIC Range (Lactobacillus brevis): 1 µg/mL (≈ 2.05 µM)
- MIC Range (Lactobacillus casei): <0.125 µg/mL
- MIC Range (Lactobacillus rhamnosus): 0.125 µg/mL (≈ 0.256 µM)
- MIC Range (Staphylococcus aureus): 0.125 µg/mL (≈ 0.256 µM)

Structure (SMILES): O=c1ccc2ncc(=O)n3c2n1C[C@H]3CN1CCC(NCc2cc3c(cn2)OCCC3)CC1 [Gepotidacin]
- MIC50 (N. gonorrhoeae isolates; [8]): 0.25 µg/mL (≈ 0.557 µM)
- MIC90 (N. gonorrhoeae isolates; [9]): 0.5 µg/mL (≈ 1.11 µM)
- MIC50 (N. gonorrhoeae isolates; [10]): 0.5 µg/mL (≈ 1.11 µM)
- MIC90 (N. gonorrhoeae isolates; [11]): 1 µg/mL (≈ 2.23 µM)
- MIC Range (N. gonorrhoeae isolates; [5]): 0.03 to 8 µg/mL
- MIC Range (N. gonorrhoeae isolates; [6]): 0.03 to 8 µg/mL
- MIC Range (L. crispatus): ≤1 µg/mL
- MIC Range (L. gasseri): ≤1 µg/mL
- MIC Range (L. jensenii): ≤1 µg/mL
- MIC Range (L. johnsonii): ≤1 µg/mL
- MIC [1, 12]: < 1 µg/mL
- MIC Range [2, 7]: <0.125 µg/mL
- MIC Range ([2]; Bacteroides breve (2 strains)): <0.125 µg/mL
- MIC Range ([2]; Bacteroides longum (2 strains)): 0.5 µg/mL (≈ 1.11 µM)
- MIC Range (Bacteroides dorei): 0.125 µg/mL (≈ 0.279 µM)
- MIC Range (Bacteroides fragilis): 0.25 to 2 µg/mL
- MIC Range [3]: 0.125 µg/mL (≈ 0.279 µM)
- MIC Range (Enterococcus faecalis): 1 µg/mL (≈ 2.23 µM)
- MIC Range (Enterococcus faecium): 2 µg/mL (≈ 4.46 µM)
- MIC Range (Escherichia coli): 0.125 µg/mL (≈ 0.279 µM)
- MIC Range (Lactobacillus brevis): 0.5 µg/mL (≈ 1.11 µM)
- MIC Range (Lactobacillus casei): 0.25 µg/mL (≈ 0.557 µM)
- MIC Range (Lactobacillus rhamnosus): 0.5 µg/mL (≈ 1.11 µM)
- MIC Range (Staphylococcus aureus): 0.25 µg/mL (≈ 0.557 µM)

Structure (SMILES): CC[C@H]1OC(=O)[C@H](C)[C@@H](O[C@H]2C[C@@](C)(OC)[C@@H](O)[C@H](C)O2)[C@H](C)[C@@H](O[C@@H]2O[C@H](C)C[C@H](N(C)C)[C@H]2O)[C@](C)(O)C[C@@H](C)CN(C)[C@H](C)[C@@H](O)[C@]1(C)O [Azithromycin]
- MIC50 (N. gonorrhoeae isolates; [8]): 1 µg/mL (≈ 1.34 µM)
- MIC90 (N. gonorrhoeae isolates; [9]): 4 µg/mL (≈ 5.34 µM)
- MIC50 (N. gonorrhoeae isolates; [10]): 1 µg/mL (≈ 1.34 µM)
- MIC90 (N. gonorrhoeae isolates; [11]): 4 µg/mL (≈ 5.34 µM)
- MIC Range (N. gonorrhoeae isolates; [5]): 0.03 to 512 µg/mL
- MIC Range (N. gonorrhoeae isolates; [6]): 0.03 to 512 µg/mL
- MIC ([4]; strain CDC-174, agar dilution): 1 µg/mL (≈ 1.34 µM)
- MIC ([4]; strain CDC-179, agar dilution): 8 µg/mL (≈ 10.7 µM)
- MIC ([4]; strain CDC-181, agar dilution): 256 µg/mL (≈ 342 µM)
- MIC ([4]; strain WHO-L, agar dilution): 0.5 µg/mL (≈ 0.668 µM)
- MIC ([4]; strain WHO-X, agar dilution): 0.5 µg/mL (≈ 0.668 µM)
- MIC ([4]; strain WHO-Y, agar dilution): 1 µg/mL (≈ 1.34 µM)
- MIC ([4]; strain WHO-Z, agar dilution): 1 µg/mL (≈ 1.34 µM)
- MIC (L. crispatus; L. crispatus HM-103): 1 µg/mL (≈ 1.34 µM)
- MIC (L. crispatus; L. crispatus HM-371): 2 µg/mL (≈ 2.67 µM)
- MIC (L. crispatus; L. crispatus HM-638): 1 µg/mL (≈ 1.34 µM)
- MIC Range (L. crispatus): ≤1 µg/mL
- MIC (L. gasseri; L. gasseri HM-407): ≤ 0.5 µg/mL
- MIC (L. gasseri; L. gasseri HM-642): 2 µg/mL (≈ 2.67 µM)
- MIC (L. gasseri; L. gasseri HM-644): 2 µg/mL (≈ 2.67 µM)
- MIC (L. gasseri; L. gasseri HM-647): 1 µg/mL (≈ 1.34 µM)
- MIC Range (L. gasseri): ≤1 µg/mL
- MIC (L. jensenii; L. jensenii HM-105): ≤ 0.5 µg/mL
- MIC (L. jensenii; L. jensenii HM-372): 1 µg/mL (≈ 1.34 µM)
- MIC (L. jensenii; L. jensenii HM-374): 1 µg/mL (≈ 1.34 µM)
- MIC (L. jensenii; L. jensenii HM-639): 1 µg/mL (≈ 1.34 µM)
- MIC (L. jensenii; L. jensenii HM-640): ≤ 0.5 µg/mL
- MIC (L. jensenii; L. jensenii HM-645): 1 µg/mL (≈ 1.34 µM)
- MIC (L. jensenii; L. jensenii HM-646): 2 µg/mL (≈ 2.67 µM)
- MIC Range (L. jensenii): ≤1 µg/mL
- MIC (L. johnsonii; Lactobacillus johnsonii, L. johnsonii HM-643): 2 µg/mL (≈ 2.67 µM)
- MIC Range (L. johnsonii): ≤1 µg/mL
- MIC [1, 12]: < 1 µg/mL
- PAE (N. gonorrhoeae; strain FA 1090): 6 h
- PAE (N. gonorrhoeae; strain WHO P): 8 h
- PAE (N. gonorrhoeae; strain WHO Y): 4 h
- MIC Range [2, 7]: 0.015 µg/mL (≈ 0.02 µM)
- MIC Range ([2]; Bacteroides breve (2 strains)): 0.03 to 0.06 µg/mL
- MIC Range ([2]; Bacteroides longum (2 strains)): 0.25 µg/mL (≈ 0.334 µM)
- MIC Range (Bacteroides dorei): 4 to 16 µg/mL
- MIC Range [3]: 0.03 µg/mL (≈ 0.0401 µM)
- MIC Range (Enterococcus faecalis): 2 µg/mL (≈ 2.67 µM)
- MIC Range (Enterococcus faecium): 0.25 µg/mL (≈ 0.334 µM)
- MIC Range (Escherichia coli): 2 µg/mL (≈ 2.67 µM)
- MIC Range (Lactobacillus brevis): 1 µg/mL (≈ 1.34 µM)
- MIC Range (Lactobacillus casei): 0.5 µg/mL (≈ 0.668 µM)
- MIC Range (Lactobacillus rhamnosus): 1 µg/mL (≈ 1.34 µM)
- MIC Range (Staphylococcus aureus): 0.25 µg/mL (≈ 0.334 µM)
- MIC Range (N. flavescens): 2 µg/mL (≈ 2.67 µM)
- MIC Range (N. lactamica): 2 µg/mL (≈ 2.67 µM)
- MIC Range (N. mucosa): 2 µg/mL (≈ 2.67 µM)
